# “Also recorded” adds a separate entry of the source.
# Tests used:
# Format in all cases: cell-based, human
# HL60 cells = assay: Inhibition of native cell surface fucosylation of HL60 cells (flow cytometry); details: 72 hours incubation, 24-, 48-, 72-hour timepoints, 6A and 26 at 64 or 256 uM
# Experimental: (§1) For inhibition of cell surface fucosylation, a Symphony A3 (BD Biosciences) was utilized for flow cytometry and the data acquired was analyzed using FlowJo Software (Treestar). Cells were stained using antibodies specific to CD15s (CSLEX1) from BD biosciences and CD15 (LeX) from Biolegend.
# The HL60 cell line (a human promyelocytic leukemia cell line) was incubated for 72 hours in RPMI 1640 medium containing 10% FBS with either 2F-Ac-Fucose (positive control), Compound 6A (64 or 256 uM), or Compound 26 (64 or 256 uM). Cells were evaluated by flow cytometry at 24-, 48-, and 72-hour timepoints of incubation for expression of CD15s (sLe^X) and CD15 (Le^X) (FIG. 10B).
# (§2) In each case, expression of the relevant marker (CD15 or CD15s) was quantified as the median channel fluorescence (MFI), which was then divided by the MFI of Control cells incubated in media containing DMSO at levels equivalent to that for each inhibitor tested (i.e., Y-axis are values of (MFI of inhibitor-treated cells/MFI of DMSO-incubated Control cells)×100%).
# THP-1 cells = assay: Inhibition of native cell surface fucosylation of THP-1 cells (flow cytometry); details: for CD15 (Le^X) expression / CD15s (sLe^X) expression: 48 hours incubation, 24- and 48-hour timepoints
# Experimental: as §1
# The THP-1 cell line (a human monocytic leukemia cell line) was incubated for 48 hours with either Compound 31, Compound 6A, Compound 26, or with 2F-Ac-Fucose (positive control) in RPMI 1640 medium containing 10% FBS. Cells were evaluated by flow cytometry at 24- and 48-hour timepoints for expression of CD15 (Le^X), and CD15s (sLe^X) (FIG. 11).
# as §2
# KG1a cells = assay: Inhibition of native cell surface fucosylation of KG1a cells (flow cytometry); details: 72 hours incubation, 24-, 48-, 72-hour timepoints, 64 or 256 uM
# Experimental: as §1
# Cells were evaluated at 24-, 48-, and 72-hour timepoints of incubation to assess for effects on expression of CD15s (sLe^X) by flow cytometry (FIG. 10A).
# as §2
Compound,CD15 (Le^X) expression (HL60 cells),CD15s (sLe^X) expression (HL60 cells),concentration range inhibiting creation of CD15s (THP-1 cells),concentration range inhibiting synthesis of CD15 (THP-1 cells),CD15s (sLe^X) synthesis (THP-1 cells; 3 μM),CD15 (Le^X) synthesis (THP-1 cells; 50 μM),CD15s (sLe^X) synthesis (THP-1 cells; 50 μM),CD15 (Le^X) expression (THP-1 cells),CD15s (sLe^X) expression (THP-1 cells),CD15s (sLe^X) expression (KG1a cells),time by which CD15s inhibition is evident (THP-1 cells),concentration inhibiting creation of CD15s (THP-1 cells; within 48 hours)
"CC(=O)OC1O[C@@H](C)[C@@H](OC(C)=O)[C@@H](OC(C)=O)[C@@H]1F (stereo partly drawn) [2F-Ac-Fucose, reference compound]",loss of both CD15s and CD15 expression,loss of both CD15s and CD15 expression,micromolar range,micromolar range,not at 3 μM concentration,inhibition of synthesis,inhibition of synthesis,inhibits synthesis of both markers,inhibits synthesis of both markers,,,
CC(=O)OC1C(C)OC2Oc3ccc(CC(=O)NCCOCCOCCN)cc3SC2C1OC(C)=O.O=C(O)C(F)(F)F (stereo not drawn) [Compound 6A],only inhibited the formation of CD15s,inhibited the formation of CD15s,nanomolar range; also recorded: nM range,,,,,does not inhibit CD15 expression,inhibit creation of CD15s,inhibited CD15s expression similar to that of 2F-Ac-Fucose,≤ 24 h,
CCOC(=O)C1=C(C23CCC4CC(CC(C4)C2)C3)OC2OC(C)C(OC(C)=O)C(OC(C)=O)C2S1 (stereo not drawn) [Compound 26],only inhibited the formation of CD15s,inhibited the formation of CD15s,nanomolar range; also recorded: nM range,,,,,does not inhibit CD15 expression,inhibit creation of CD15s,inhibited CD15s expression similar to that of 2F-Ac-Fucose,≤ 24 h,
COC(=O)Cc1ccc2c(c1)SC1C(O2)OC(C)C(OC(C)=O)C1OC(C)=O (stereo not drawn) [Compound 31],,,,,,,,does not inhibit CD15 expression,specificity for inhibiting the creation of CD15s; also recorded: inhibits the creation of CD15s,,≤ 48 h,below 50 uM
